Experimental findings from US9833497B2, “Human originated EGF domain proteins and use of the same” (CHENGDU SOURCEBIO LIMITED-LIABILITY COMPANY, priority 2013, dated 2017) are described below.

For orientation: MIC means the lowest concentration found to suppress growth. Read a low MIC as a more susceptible organism.

What all share (type): cell-based
The test system of assay [1] is Klebsiella pneumonia. Description: MIC against Gram-negative bacteria: Klebsiella pneumonia. Particulars: 5×10^5 CFU/mL. Put shortly: (§1)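 Bacteria grown in LB at 37° C to McFarland 0.5, resuspended and seeded at 5×10^5 CFU/mL in 96-well plates. Purified human EGF-domain proteins two-fold serially diluted, triplicate wells; cultured at 37° C, shaking 175 rpm. MIC = lowest protein concentration with no growth.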

For assay [2], the system named is E. coli BL21. The assay is described as follows: MIC against Gram-negative bacteria: E. coli BL21. Particulars: 5×10^5 CFU/mL. Put shortly: as §1
Assay [3] relates to Enterobacter cloacae. Description: MIC against Gram-negative bacteria: Enterobacter cloacae. Particulars: 5×10^5 CFU/mL. An outline of the steps: as §1
Assay [4] has as its system E. coli DH5α. The assay is described as follows: Antibacterial activity: MIC and growth curve against E. coli DH5α in 96-well plate. Particulars: minimal inhibitory concentration against E. coli DH5α; 96-well plate, 5×10^5 CFU/mL, 37° C., judged after 8 h. An outline of the steps:
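MIC taken as lowest protein level with no bacterial growth, tracked by A600 every 30 min during 37 °C, 175 rpm culture. Two-fold protein series 50-12.5 μg/mL final, triplicate wells, against 5×10^5 CFU/mL of LB-washed mid-log cells.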

Assay [5] relates to Proteus vulgaris. The assay is described as follows: MIC against Gram-negative bacteria: Proteus vulgaris. Particulars: 5×10^5 CFU/mL. An outline of the steps: as §1
Assay [6] deals with Proteus mirabilis. Description: MIC against Gram-negative bacteria: Proteus mirabilis. Particulars: 5×10^5 CFU/mL. An outline of the steps: as §1
Assay [7] relates to Pseudomonas aeruginosa. The assay is described as follows: MIC against Gram-negative bacteria: Pseudomonas aeruginosa. Particulars: 5×10^5 CFU/mL. Put shortly:
as §1

Assay [8] relates to Aeromonas hydrophila. The assay is described as follows: MIC against Gram-negative bacteria: Aeromonas hydrophila. Particulars: 5×10^5 CFU/mL. An outline of the steps: as §1
For assay [9], the system named is Moraxella catarrhalis. The assay is described as follows: MIC against Gram-negative bacteria: Moraxella catarrhalis. Particulars: 5×10^5 CFU/mL. An outline of the steps:
as §1

Assay [10] relates to Serratia marcescens. Description: MIC against Gram-negative bacteria: Serratia marcescens. Particulars: 5×10^5 CFU/mL. An outline of the steps:
as §1

For assay [11], the system named is Citrobacter diversus. The assay is described as follows: MIC against Gram-negative bacteria: Citrobacter diversus. Particulars: 5×10^5 CFU/mL. An outline of the steps: as §1
The mark [12] stands for this setting: K. pneumonia, 10 h cultivation at 37° C.
[13] abbreviates: E. coli BL21, 10 h cultivation at 37° C.
The mark [14] stands for this setting: E. cloacae, 10 h cultivation at 37° C.
[15] abbreviates: P. vulgaris, 10 h cultivation at 37° C.
[16] abbreviates: P. mirabilis, 10 h cultivation at 37° C.
[17] abbreviates: P. aeruginosa, 10 h cultivation at 37° C.
Where [18] appears, read: A. hydrophila, 10 h cultivation at 37° C.
The mark [19] stands for this setting: M. catarrhalis, 10 h cultivation at 37° C.
The mark [20] stands for this setting: S. marcescens, 10 h cultivation at 37° C.
The mark [21] stands for this setting: C. diversus, 10 h cultivation at 37° C.

Take “PRT434 (DVNECATENPCVQTCVNTYGSFICRCDPGYELEEDGVHCS; listed as Homo sapiens)”: the MIC amounted to 50 µg/mL in assay [1] (setting [12]); 50 µg/mL in assay [2] (setting [13]); 12.5 µg/mL in assay [3] (setting [14]); 12.5 µg/mL in assay [4]; 12.5 µg/mL in [5] (setting [15]); 25 µg/mL in assay [6] (setting [16]). In addition, the minimum inhibitory concentration (MIC) stood at 12.5 µg/mL in assay [7] (setting [17]); 50 µg/mL in [8] (setting [18]); 50 µg/mL in assay [9] (setting [19]); 25 µg/mL in assay [10] (setting [20]); 12.5 µg/mL in assay [11] (setting [21]).

On to “PRT66 (DDNICLREPCENYMKCVSVLRFDSSAPFLSSTTVLFRPIHPINGLRCRCPPGFTGDYCE; listed as Homo sapiens)”, for which the “MIC (μg/mL) K. pneumonia” value in assay [1] (Klebsiella pneumonia, 96-well plate, 37° C., 10 h) came to 12.5 µg/mL. The “MIC (μg/mL) E. coli BL21” value in [2] (E. coli BL21, 96-well plate, 37° C., 10 h) came out at 12.5 µg/mL. In addition, in [3] (Enterobacter cloacae, 96-well plate, 37° C., 10 h), the “MIC (μg/mL) E. cloacae” value came out at 12.5 µg/mL. Also, the minimum inhibitory concentration (MIC) in assay [4] turned out to be 12.5 µg/mL. For the same substance, in [5] (Proteus vulgaris, 96-well plate, 37° C., 10 h), the “MIC (μg/mL) P. vulgaris” value is 12.5 µg/mL. In addition, the “MIC (μg/mL) P. mirabilis” value in assay [6] (Proteus mirabilis, 96-well plate, 37° C., 10 h) was found to be 25 µg/mL. Further, the “MIC (μg/mL) P. aeruginosa” value in [7] (Pseudomonas aeruginosa, 96-well plate, 37° C., 10 h) is 12.5 µg/mL. Further, the “MIC (μg/mL) A. hydrophila” value in [8] (Aeromonas hydrophila, 96-well plate, 37° C., 10 h) stood at 12.5 µg/mL. For the same substance, the “MIC (μg/mL) M. catarrhalis” value in assay [9] (Moraxella catarrhalis, 96-well plate, 37° C., 10 h) is 12.5 µg/mL. The “MIC (μg/mL) S. marcescens” value in assay [10] (Serratia marcescens, 96-well plate, 37° C., 10 h) came to 25 µg/mL. The “MIC (μg/mL) C. diversus” value in assay [11] (Citrobacter diversus, 96-well plate, 37° C., 10 h) worked out at 25 µg/mL.

For “PRT609 (CHCSPVGSLSTQCDSYGRCSCKPGVMGDKCDRCQPGFHSLTEAGCRP; listed as Homo sapiens)”, the “MIC K. pneumonia” value in assay [1] (96-well plate, 37° C., 10 h) came out at 25 µg/mL. For the same substance, the “MIC E. coli BL21” value in assay [2] (96-well plate, 37° C., 10 h) is 25 µg/mL. Moreover, the “MIC E. cloacae” value in assay [3] (96-well plate, 37° C., 10 h) was found to be 50 µg/mL. This substance displayed an MIC in assay [4] of 50 µg/mL. The “MIC P. vulgaris” value in assay [5] (96-well plate, 37° C., 10 h) came out at 25 µg/mL. In addition, in assay [6] (96-well plate, 37° C., 10 h), the “MIC P. mirabilis” value was 50 µg/mL. The “MIC P. aeruginosa” value in assay [7] (96-well plate, 37° C., 10 h) turned out to be 12.5 µg/mL. The “MIC A. hydrophila” value in [8] (96-well plate, 37° C., 10 h) worked out at 25 µg/mL. In addition, the “MIC M. catarrhalis” value in assay [9] (96-well plate, 37° C., 10 h) was 25 µg/mL. In addition, the “MIC S. marcescens” value in [10] (96-well plate, 37° C., 10 h) turned out to be 12.5 µg/mL. The “MIC C. diversus” value in assay [11] (96-well plate, 37° C., 10 h) was 12.5 µg/mL.

Turning to “PRT778 (QNQSCPVNYCYNQGHCYISQTLGCQPMCTCPPAFTDSRCF; listed as Homo sapiens)”, in assay [1] (setting [12]), the “MIC (μg/mL) K. pneumonia” value amounted to 12.5 µg/mL. The “MIC (μg/mL) E. coli BL21” value in [2] (setting [13]) stood at 12.5 µg/mL. Further, the “MIC (μg/mL) E. cloacae” value in [3] (setting [14]) is 50 µg/mL. For the same substance, the MIC in [4] stood at 50 µg/mL. Also, the “MIC (μg/mL) P. vulgaris” value in assay [5] (setting [15]) turned out to be 25 µg/mL. Further, the “MIC (μg/mL) P. mirabilis” value in assay [6] (setting [16]) worked out at 12.5 µg/mL. Further, in [7] (setting [17]), the “MIC (μg/mL) P. aeruginosa” value is 50 µg/mL. Moreover, in assay [8] (setting [18]), the “MIC (μg/mL) A. hydrophila” value amounted to 12.5 µg/mL. In addition, the “MIC (μg/mL) M. catarrhalis” value in assay [9] (setting [19]) was 12.5 µg/mL. The “MIC (μg/mL) S. marcescens” value in assay [10] (setting [20]) worked out at 12.5 µg/mL. For the same substance, the “MIC (μg/mL) C. diversus” value in [11] (setting [21]) was 12.5 µg/mL.

As for “PRT704 (LLSNCQQLNCQYKCTMVRNSTRCYCEDGFEITEDGRSCK; listed as Homo sapiens)”, in [1] (96-well plate, 37° C., 10 h), the “MIC K. pneumonia” value was 25 µg/mL. Further, the “MIC E. coli BL21” value in assay [2] (96-well plate, 37° C., 10 h) is 25 µg/mL. Moreover, the “MIC E. cloacae” value in assay [3] (96-well plate, 37° C., 10 h) came to 50 µg/mL. In addition, the MIC in assay [4] is 50 µg/mL. The “MIC P. vulgaris” value in [5] (96-well plate, 37° C., 10 h) is 25 µg/mL. For the same substance, the “MIC P. mirabilis” value in [6] (96-well plate, 37° C., 10 h) came out at 50 µg/mL. For the same substance, the “MIC P. aeruginosa” value in assay [7] (96-well plate, 37° C., 10 h) is 50 µg/mL. The “MIC A. hydrophila” value in assay [8] (96-well plate, 37° C., 10 h) amounted to 50 µg/mL. In addition, the “MIC M. catarrhalis” value in assay [9] (96-well plate, 37° C., 10 h) was 12.5 µg/mL. The “MIC S. marcescens” value in [10] (96-well plate, 37° C., 10 h) turned out to be 12.5 µg/mL. Besides, the “MIC C. diversus” value in [11] (96-well plate, 37° C., 10 h) stood at 25 µg/mL.
